The numbers were not newly measured in patent publication US20170119738A1, “PHARMACEUTICAL COMPOSITIONS FOR RIZATRIPTAN” (Dr. Reddy's Laboratories, Ltd., priority 2015, published 2017), which cites them from elsewhere.

SMILES strings stand for the structures.

Data set [1] concerns human cloned 5-HT1B/1D receptors.

As for `CN(C)CCc1c[nH]c2ccc(Cn3cncn3)cc12` [Rizatriptan, N,N-dimethyl-2-[5-(1H-1,2,4-triazol-1-ylmethyl)-1H-indol-3-yl]ethanamine], the binding affinity entry in data set [1] is “high affinity”. The “pain-free response at 2 hours, symptom-free response at 2 hours, 24 hour sustained pain-free response” value in the data set with migraine headache (oral 10 mg vs oral sumatriptan, naratriptan, zolmitriptan (Adelman et al. 2001)) is on record as “more effective”. For the same compound, the “effectiveness for pain relief (PR) and pain freedom (PF)” value in the data set on migraine headache (oral 10 mg vs other oral triptans (Ng-Mak et al. 2007)) is recorded as “significantly more effective than other oral triptans”.
